We go through seven molecules from patent EP0406111A1, “Substituted arylamines and heteroarylamines, process for their preparation and pharmaceutical composition containing them” (SOCIETE DE CONSEILS DE […] D'APPLICATIONS SCIENTIFIQUES …, priority 1989, dated 1991).

Assay [1] concerns fixation de la (³H)BTCP dans le striatum de souris. The experiment in a line: Inhibition of in vivo (3H)BTCP binding in mouse striatum (Example 40). The note with it: mice, compound s.c. 60 min before i.v. (3H)BTCP, sacrifice 30 min later. The procedure:
Exemple 40 : Etude de l'inhibition de la fixation "in vivo" de (³H)BTCP chez la souris.
Pour cette étude, on utilise des souris Swiss mâles pesant 20 à 25g. Les souris sont réparties par groupes et alimentées avec de la nourriture standard de laboratoire et de l'eau à volonté, en réalisant des cycles de lumière artificielle de 12h consécutives à partir de 7h du matin. Les expériences sont effectuées entre 10h et 18h. Les mesures de la fixation "in vivo" de la (³H)BTCP sont effectuées comme il a été décrit par Maurice et al, 1989, de la façon suivante.
On injecte aux souris par voie sous-cutanée le composé à tester dans 100µl de solution physiologique pour les composés n^o 4 et n^o 16 et dans 100µl d'un mélange 1:1 en volume de solution physiologique et de DMSO pour le composé n^o 26. 60 min après cette injection on leur injecte dans une veine de la queue (³H)BTCP à une dose de 5µCi dans 100µl d'un mélange de solution physiologique et d'éthanol à 5%. 30min après cette injection, on sacrifie les souris. Les striata de cerveaux sont rapidement disséqués et homogénéisés avec un ultra turrax (IKA Verk) réglage maximum pendant 20s dans 80 volumes d'un tampon Na₂HPO₄, HCl 50mM, pH=7,4 à 4°C. Deux aliquots de […] sont filtrées sous pression réduite sur des filtres GF/B (Whatman) prétraités par de la polyéthylène imine à 0,5% (Aldrich). On rince ensuite les filtres deux fois avec 5ml d'un tampon NaCl 50mM, tris-HCl 10mM, pH=7,4 à 4°C. La radioactivité fixée qui reste sur les filtres, et la radioactivité totale, obtenue à partir des deux aliquots de 200µl d'homogénats sont mesurées dans des flacons de 6ml contenant 3,5ml de ACS (Amersham) avec un spectrophotomètre à scintillation liquide Excel 1410 (LKB). La fixation non spécifique est définie comme la radioactivité présente dans chaque région après prétraitement des animaux avec de la BTCP (40mg/kg dans 100µl de solution saline), injectée par voie sous-cutanée, 60min avant l'injection de (³H)BTCP. Les résultats sont exprimés sous la forme des rapports radioactivité fixée / radioactivité libre (B/F) dans lesquels le taux de (³H)BTCP libre est estimé en soustrayant la radioactivité fixée de la radioactivité totale.

A further assay deals with T1, recapture de la dopamine (Rattus norvegicus, UniProt P23977).
T1 construct: Cultures primaires de neurones; endogenous in cells; host or cells: primary neurons from substantia nigra of 14-day rat embryos
The experiment in a line: Inhibition of (3H)DA reuptake in primary cultured neurons (Example 39). The format is cell-based. The note with it: for Recapture de (³H)DA nH (nombre de Hill) / IC50: cultured neurons from rat embryos; for IC50: 10⁻⁸M (3H)DA, 10 min at 37°C, read-out: Recapture de (³H)DA IC 50. An excerpt:
(§1) Exemple 39 : Etude de l'inhibition de la recapture de la dopamine et de la noradrénaline sur des neurones en culture.
(§2) a) Cultures primaires de neurones.
(§3) La substance noire, structure riche en cellules dopaminergiques, ou le locus coeruleus, contenant les corps cellulaires noradrénergiques, sont disséqués à partir d'embryons de rats de 14 jours, âge auquel les cellules ont terminé leur mitose. Les cellules sont dissociées mécaniquement dans un milieu sans calcium ni magnésium.
(§4) L'ensemencement est réalisé dans des puits prétraités avec de la D-polylysine, à une densité de 150 000 cellules/puits, dans 400µl de milieu de culture composé de 70% de M.E.M.; 25% de Hanks; 5% de Nu-serum décomplémenté; plus 3% de D-glucose (1/20).
(§5) Le milieu de culture est renouvelé au tiers tous les trois jours, jusqu'à 9 jours de développement "in vitro", âge auquel les cellules paraissent matures. A cet âge, la culture ne présente pas encore de cellule gliales.
(§6) b) Test d'inhibition de la recapture de la dopamine et de la noradrénaline.
(§7) On pré-incube les cellules obtenues en a) pendand 15min, à la température ambiante, avec 40µl d'un tampon constitué par le Ringer Phosphate-disodique 5 mM pH=7,6 dont la composition en concentrations finales est la suivante : NaCl 120mM; CaCl₂ 2,6 mM; MgCl₂ 1,3 mM; KCl 5mM; D-glucose 3 mM; Na₂HPO₄5mM.
(§8) On incube ensuite pendant 10min à 37°C avec le même tampon en présence de (³H)Da ou de (³H)NA à une concentration finale 10⁻⁸M et une dilution isotopique de 1/5, et de concentrations croissantes en composé à tester dans un volume final de 400µl.
(§9) On rince ensuite trois fois rapidement avec 750µl du même tampon à 4°C, ce qui correspond à une durée totale de 10 secondes.
(§10) On récupère alors les cellules dans 2 fois 500µl de NaOH 0,5N et on détermine leur radioactivité par comptage avec 4ml de scintillant et 50µl d'acide acétique glacial.
Avant les rinçages, on a prélevé un aliquote de 100µl du milieu d'incubation et on a déterminé la radioactivité libre sur celui-ci par comptage avec 5ml de scintillant.
La recapture spécifique de la (³H)DA ou de (³H)NA est déduite de la différence entre la recapture totale et la diffusion passive pour chacun des composés testés.

Assay [2] has as its target recapture de la noradrénaline (Rattus norvegicus, UniProt Q63380). The experiment in a line: Inhibition of (3H)NA reuptake in primary cultured neurons (Example 39). The format is cell-based. The note with it: for Recapture de (³H)NA nH (nombre de Hill): cultured neurons from rat embryos.
Description: as §1, §2, §3, §4, §5, §6, §7, §8, §9, §10
Avant les rinçages, on a prélevé un aliquote de 100µl du milieu d'incubation et on a déterminé la radioactivité libre sur celui-ci par comptage avec 5ml de scintillant. […]

Structures are written as SMILES.

T1 sequence (P23977 whole entry): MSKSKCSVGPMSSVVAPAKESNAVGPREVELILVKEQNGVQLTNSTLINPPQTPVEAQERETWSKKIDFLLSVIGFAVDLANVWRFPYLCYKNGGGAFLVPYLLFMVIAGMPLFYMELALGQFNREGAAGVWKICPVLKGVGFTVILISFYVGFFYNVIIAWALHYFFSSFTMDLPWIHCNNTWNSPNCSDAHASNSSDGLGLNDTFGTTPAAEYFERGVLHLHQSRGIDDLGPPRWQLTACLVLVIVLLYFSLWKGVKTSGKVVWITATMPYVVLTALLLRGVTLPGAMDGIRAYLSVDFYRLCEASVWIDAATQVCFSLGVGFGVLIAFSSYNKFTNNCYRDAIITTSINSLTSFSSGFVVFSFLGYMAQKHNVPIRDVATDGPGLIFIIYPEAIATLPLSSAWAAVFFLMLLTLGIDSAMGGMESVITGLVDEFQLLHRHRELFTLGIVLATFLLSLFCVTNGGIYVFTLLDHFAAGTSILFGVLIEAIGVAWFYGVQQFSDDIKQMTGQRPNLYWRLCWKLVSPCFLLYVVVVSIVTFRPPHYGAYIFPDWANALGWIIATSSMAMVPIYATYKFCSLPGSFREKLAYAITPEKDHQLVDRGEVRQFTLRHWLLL
recapture de la noradrénaline, sequence (Q63380 1-617): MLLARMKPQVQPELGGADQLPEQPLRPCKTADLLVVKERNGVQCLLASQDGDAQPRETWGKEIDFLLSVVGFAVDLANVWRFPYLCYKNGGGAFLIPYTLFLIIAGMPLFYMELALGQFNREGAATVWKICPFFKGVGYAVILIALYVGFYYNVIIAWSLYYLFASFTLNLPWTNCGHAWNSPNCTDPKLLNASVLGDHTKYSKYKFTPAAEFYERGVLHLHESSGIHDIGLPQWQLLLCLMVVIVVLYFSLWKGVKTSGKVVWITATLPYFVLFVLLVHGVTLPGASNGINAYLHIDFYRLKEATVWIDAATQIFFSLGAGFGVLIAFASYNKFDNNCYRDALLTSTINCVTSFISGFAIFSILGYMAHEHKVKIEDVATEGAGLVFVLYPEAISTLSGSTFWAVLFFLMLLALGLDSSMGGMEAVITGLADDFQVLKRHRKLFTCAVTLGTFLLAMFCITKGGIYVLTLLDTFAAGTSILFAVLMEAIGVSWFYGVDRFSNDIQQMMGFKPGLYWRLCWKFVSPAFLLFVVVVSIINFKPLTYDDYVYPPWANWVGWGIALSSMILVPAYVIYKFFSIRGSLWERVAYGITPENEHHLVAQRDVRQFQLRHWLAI

As to `OC1CCN(C2(c3cc4ccccc4s3)CCCCC2)CC1` [composé 26, (benzo(b)thiophényl-2)-1( (ol-4-pipéridino)-1)-1 cyclohexane], the “ID₅₀ (mg/kg)” value in assay [1] is listed as 0,56 mg/kg. At recapture de la dopamine, the “Recapture de (³H)DA nH (nombre de Hill)” value is 1,09 and the IC50 was 17 nM.
For the molecule `CCCN(CCC)C1(c2cc3ccccc3s2)CCCCC1` [composé no 3, (benzo(b)thiophényl-2)-1 (dipropylamino-1)-1 cyclohexane], in assay [2], the “Recapture de (³H)NA nH (nombre de Hill)” value is 0,85.
Consider `CC1CC(C)CN(C2(c3cc4ccccc4s3)CCCCC2)C1` (stereo not drawn) [composé n^o 6, (benzo(b)thiophényl-2)-1 ((diméthyl-3,5 pipéridino)-1)-1 cyclohexane], for which, at recapture de la dopamine (cultured neurons), the “Recapture de la dopamine, result in words” value was “inhibiteur très puissant”. Further, at recapture de la dopamine, the “Recapture de (³H)DA nH (nombre de Hill)” value is 0,95 and the IC50 was 1.47 nM. Besides, in assay [2] (cultured neurons), the “Recapture de la noradrénaline, result in words” value is “inhibiteur très puissant”. Besides, the “Recapture de (³H)NA nH (nombre de Hill)” value in assay [2] is listed as 1,2.
As to `C[C@H]1CC[C@@](c2cc3ccccc3s2)(N2CCCCC2)CC1` [composé n^o 21, (benzo(b)thiophényl-2)-1 c-méthyl-4-r-(pipéridino-1)-1 cyclohexane], at recapture de la dopamine, the “Recapture de (³H)DA nH (nombre de Hill)” value was 1,07 and the IC50 was found to be 8 nM.
`c1ccc2sc(C3(N4CCCCC4)CCCCC3)cc2c1` [BTCP, (benzo(b)thiophényl-2)-1 (pipéridino -1) cyclohexane, reference compound]: the “ID₅₀ (mg/kg)” value in assay [1] is 4,98 mg/kg.
Regarding `CC1CCCN(C2(c3cc4ccccc4s3)CCCCC2)C1` (stereo not drawn) [composé n^o 2, (benzo(b)thiophényl-2)-1 ((méthyl-3 pipéridino)-1)-1 cyclohexane], on recapture de la dopamine, the “Recapture de (³H)DA nH (nombre de Hill)” value is listed as 0,95 and the IC50 was 70 nM.
Consider `c1ccc2oc(C3(N4CCCCC4)CCCCC3)cc2c1` [composé n^o 4, (benzo(b)furannyl-2)-1 (pipéridino-1)-1 cyclohexane], for which the “ID₅₀ (mg/kg)” value in assay [1] is 7,78 mg/kg.
